Assay results from US8372840B2, “Potassium channel blockers” (Xention Limited, priority 2008, dated 2013).

How the values were obtained:
human Kv1.3 = target: T1, human Kv1.3 (Homo sapiens, UniProt P22001); test: Kv1.3 Autopatch Electrophysiology (whole cell patch-clamp, stably transfected CHO cells); type: cell-based; details: compound 1 μM, step to +30 mV for 500 ms, inhibition of total charge relative to control, room temperature; for inhibition at 1 µM: CHO, read-out: hKv1.3 % inh.
T1 construct: expressed in transfected cells; host or cells: stably transfected cells grown in medium for CHO cells
T1 sequence (P22001 whole entry): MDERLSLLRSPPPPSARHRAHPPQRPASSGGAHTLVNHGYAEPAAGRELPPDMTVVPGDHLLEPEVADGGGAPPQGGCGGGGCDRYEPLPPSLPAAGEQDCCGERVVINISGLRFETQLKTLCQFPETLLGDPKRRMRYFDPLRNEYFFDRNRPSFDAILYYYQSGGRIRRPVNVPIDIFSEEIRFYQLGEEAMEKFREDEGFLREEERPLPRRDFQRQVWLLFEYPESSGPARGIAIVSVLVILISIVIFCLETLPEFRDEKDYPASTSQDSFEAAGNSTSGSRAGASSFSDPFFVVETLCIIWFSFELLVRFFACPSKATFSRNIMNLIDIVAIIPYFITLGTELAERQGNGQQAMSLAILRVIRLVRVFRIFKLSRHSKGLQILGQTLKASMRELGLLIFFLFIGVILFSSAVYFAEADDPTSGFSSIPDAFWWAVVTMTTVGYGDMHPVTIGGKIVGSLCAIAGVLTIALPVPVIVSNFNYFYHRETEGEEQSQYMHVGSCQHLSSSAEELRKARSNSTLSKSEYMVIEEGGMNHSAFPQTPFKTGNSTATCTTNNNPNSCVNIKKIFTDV
Method: Cells stably transfected with cDNA for human Kv1.3 (in pcDNA3.1) were grown in Ex-cell 302 serum-free medium for CHO cells, supplemented with 10 μl/ml [100×] glutamine, 500 μg/ml G418 ([…]), and 1% HT supplement (50×, hypoxanthine and thymidine). Compounds were tested on these cells using the AutoPatch technology in whole cell mode.
The external bathing solution contained (in mM): 150 NaCl, 10 KCl, 1 MgCl2, 3 CaCl2, 10 HEPES, pH 7.4 with NaOH. Patch pipettes were filled with an electrode solution of composition (in mM): 100 K-Gluconate, 20 KCl, 1 MgCl2, 1 CaCl2, 10 HEPES, 11 EGTA, 5 ATP-Na2, 2 Glutathione pH 7.2 with KOH.
Compounds were dissolved in DMSO (100%) and made up in the external bather at a concentration of 1 μM immediately prior to use. All experiments were conducted at room temperature.
A cell suspension (10 ml), with a density of 6×10^6 cells, was aliquoted into a 15 ml centrifuge tube and stored at 4° C. before use. Prior to use a tube was taken and centrifuged at 1000 rpm for 4 mins at room temperature. The supernatant was then discarded, leaving a cell pellet at the bottom of the tube. The pellet was then resuspended using 1 ml of cold (4° C.), filtered (0.22 μm), 0.05% BSA/bather solution (0.05 g BSA/100 ml bather). The bottom of the tube was manually agitated followed by gentle tituration. The cell suspension was then placed in the AutoPatch™ temperature controlled cell-hotel at 14° C. and regularly titurated.
A length of Teflon capillary tubing was dipped into the cell suspension solution, and a column of fluid was taken up by negative pressure. The column of fluid was in electrically connectivity with a Ag/AgCl reference electrode. Borosilicate glass patch pipettes (from 1.5 mm OD, thin-walled filamented, GC150-TF capillary glass, Harvard) were pulled using a DMZ pipette puller (Zeitz Instruments), and were back-filled using the internal pipette solution, being careful that no bubbles remained at the tip or in the body of the pipette. Patch pipettes typically had resistances of 2.5-3.5 MΩ. Once filled, the pipette tip and a proportion of the shaft (˜15 mm) were dipped into Sigmacote (Sigma). The recording pipettes were placed in a multiwell array and mounted on the AutoPatch™ machine. Automated patch-clamping and drug-application was initiated by the operator, but thereafter AutoPatch.exe continued the experiment providing that pre-set conditions and criteria were satisfied.
Whole cell patch-clamp recordings were made using the AutoPatch™ rig, which incorporated an EPC9 or EPC10 amplifier (HEKA, Germany) under control of Pulse software (v8.54 or v8.76, HEKA, Germany), a cell applicator, automated drug application system (DAS), valve controller (VF1) and a suction device all at room temperature. This equipment was completely under the control of AutoPatch.exe and operator intervention was only made when there was a requirement to refill the bather reservoirs or to prevent the loss of a cell due to a technical error.
Qualification stages prior to perfusion and drug application ensured that the observed current met the criteria for the experiment. Cells were continuously perfused with external solution at a flow rate of ˜2 ml/minute.
Electrophysiology voltage-step protocols and analysis of data was performed as follows. Data were sampled at 5 kHz, and filtered with a −3 dB bandwidth of 2.5 kHz. Cells were held at a voltage of −80 mV. Currents were evoked by a voltage step to +30 mV for 500 ms in duration applied every 15 s. Online analysis of the hKv1.3 current during the application of compounds was performed by the Pulse (v8.54 or v8.76, HEKA, Germany), Excel (Microsoft, USA) and AutoPatch™ software, with the total charge measured during the whole of voltage step Inhibition of charge movement in the presence of drug was calculated relative to control.

hKv1.5 = hKv1.5 (Homo sapiens, UniProt P22460); test: Kv1.5 Autopatch Electrophysiology (whole cell patch-clamp); type: cell-based; details: compound 1 μM, step to 0 mV for 1000 ms, total charge, room temperature (22-24° C.); for inhibition at 1 µM: read-out: hKv1.5 % inh.
hKv1.5, sequence (P22460 whole entry): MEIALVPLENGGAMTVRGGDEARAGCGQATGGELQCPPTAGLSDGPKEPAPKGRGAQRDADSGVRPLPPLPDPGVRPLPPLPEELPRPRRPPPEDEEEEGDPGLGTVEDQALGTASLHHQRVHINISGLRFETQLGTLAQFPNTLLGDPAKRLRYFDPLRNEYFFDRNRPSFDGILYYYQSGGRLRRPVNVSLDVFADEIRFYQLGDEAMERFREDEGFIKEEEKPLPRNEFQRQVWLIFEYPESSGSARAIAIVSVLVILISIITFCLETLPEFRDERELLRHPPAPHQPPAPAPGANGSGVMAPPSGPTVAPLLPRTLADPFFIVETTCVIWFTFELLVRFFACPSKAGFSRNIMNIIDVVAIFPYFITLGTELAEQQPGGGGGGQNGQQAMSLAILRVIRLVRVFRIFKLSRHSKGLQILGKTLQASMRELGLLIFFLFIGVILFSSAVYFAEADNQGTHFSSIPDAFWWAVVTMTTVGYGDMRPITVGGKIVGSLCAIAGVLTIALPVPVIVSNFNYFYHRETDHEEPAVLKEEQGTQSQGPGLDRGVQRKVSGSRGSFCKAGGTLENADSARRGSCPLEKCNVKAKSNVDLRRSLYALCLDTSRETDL
Method: The external bathing solution contained (in mM): 150 NaCl, 10 KCl, […], 3 MgCl2, 1 CaCl2, 10 HEPES, pH 7.4. Patch pipettes were filled with an electrode solution of composition (in mM): 160 KCl, 0.5 MgCl2, 10 HEPES, 1 EGTA, pH 7.4 with KOH.
Compounds were dissolved in DMSO (100%) and made up in the external bather at a concentration of 1 μM. All experiments were conducted at room temperature (22-24° C.).
A cell suspension (10 ml), with a density of 100,000 cells/ml, was aliquoted into a 15 ml centrifuge tube and transferred to an incubator (37° C., 5% CO2) for approximately one hour before use. Following 60 min incubation, a tube was taken and centrifuged at 1000 rpm for 4 mins at room temperature. 9.5 ml supernatant was thence discarded, leaving a cell pellet at the bottom of the tube. The pellet was then resuspended using 100 μl of cold (4° C.), filtered (0.22 μm), 0.2% BSA/bather solution (0.02 g BSA/10 ml bather). The bottom of the tube was manually agitated gently until the solution became cloudy with cells. The 100 μl cell resuspension solution was then stored on the bench at 4° C. (using a Peltier-based temperature control device) until used.
A length of capillary glass (1B150E-4, WPI) was dipped into the cell suspension solution, such that ˜3 cm column of fluid was taken up by capillary action. A Ag/AgCl wire was dropped into the non-dipped end of the capillary also. The outside of the solution-filled end of the capillary was then dried and the capillary was loaded into the AutoPatch™
Borosilicate glass patch pipettes (from 1.5 mm OD, thin-walled filamented, GC150-TF capillary glass, Harvard) were pulled using a DMZ pipette puller (Zeitz Instruments), and were back-filled using the internal pipette solution, being careful that no bubbles remain at the tip or in the body of the pipette. Patch pipettes typically had resistances of 2.3-3.5 MΩ. Once filled, the pipette tip and a proportion of the shaft (˜15 mm) were dipped into Sigmacote (Sigma). The recording pipette was then loaded into the AutoPatch™. Automated patch-clamping was initiated by the operator, but thereafter AutoPatch.exe continued the experiment providing that pre-set conditions and criteria were satisfied.
Whole cell patch-clamp recordings were made using the AutoPatch™ rig, which incorporated an EPC9 amplifier (HEKA, Germany) under control of Pulse software (v8.54, HEKA, Germany), a motion controller with 2 translators (Newport, UK), valve controller (VF1) and a c-level suction device all at room temperature (22-24° C.). This equipment was completely under the control of AutoPatch.exe and operator intervention was only made when there was a requirement to refill the drug reservoirs or to prevent the loss of a cell due to a technical error. Cells with an Rseries greater than 18 MΩ were discounted from the experiment.
Qualification stages prior to perfusion and drug application ensured that the observed current met the criteria for the experiment. Only those cells with an IK>500 pA were used for experiments. Cells were continuously perfused with external solution at a flow rate of 1.8-2 ml/minute. […] Online analysis of the hKv1.5 current during the application of compounds was performed by the AutoPatch™ software. Voltage-step protocols and analysis of data was performed as described for conventional electrophysiology.
Electrophysiology voltage-step protocols and analysis of data was performed as follows. Data was sampled at 5 kHz, and filtered with a −3 dB bandwidth of 2.5 kHz. Cells were held at a voltage of −80 mV. Currents were evoked to a voltage step for 1000 ms in duration at 0 mV every 5 s. Currents were analysed using Pulsefit software (v8.54, HEKA, Germany), with the total charge measured during the whole of the voltage step. All other plots were produced using Igor Pro (WaveMetrics).

Compound | hKv1.3 % inh. (human Kv1.3) [%] | hKv1.5 % inh. (hKv1.5) [%] | inhibition at 1 µM (human Kv1.3) [%] | inhibition at 1 µM (hKv1.5) [%]
N-[3-(Benzenesulfonyl-benzyl-amino)-phenyl]-acetamide [Example 10] | 50 | 28 | – | –
CNC(=O)COc1cccc(N(Cc2ccc(Cl)cc2)S(=O)(=O)c2ccn(C)n2)c1 [Example 7, 2-{3-[(4-Chloro-benzyl)-(1-methyl-1H-pyrazole-3-sulfonyl)-amino]-phenoxy}-N-methyl-acetamide] | – | – | 99 | 93
Cn1ccc(S(=O)(=O)N(Cc2ccc(Cl)cc2)c2cccc(OCc3ccccn3)c2)n1 [Example 6, 1-Methyl-1H-pyrazole-3-sulfonic acid (4-chloro-benzyl)-[3-(pyridin-2-ylmethoxy)-phenyl]-amide] | – | – | 91 | 72
Cc1nc(S(=O)(=O)N(Cc2ccccc2)c2cccc(N3CCOCC3)c2)cn1C [Example 19, 1,2-Dimethyl-1H-imidazole-4-sulfonic acid benzyl-(3-morpholin-4-yl-phenyl)-amide] | – | – | 75 | 42
Cn1ccc(S(=O)(=O)N(Cc2ccc(Cl)cc2)c2cccc(OCC(=O)NC3CC3)c2)n1 [Example 51, 2-{3-[(4-Chloro-benzyl)-(1-methyl-1H-pyrazole-3-sulfonyl)-amino]-phenoxy}-N-cyclopropyl-acetamide] | – | – | 83 | 72
1-Methyl-1H-pyrazole-3-sulfonic acid benzyl-(3-morpholin-4-yl-phenyl)-amide [Example 41] | 92 | 33 | – | –
N-(4-Chloro-benzyl)-3-cyano-4-fluoro-N-[3-(2-oxo-imidazolidin-1-yl)-phenyl]-benzenesulfonamide [Example 45] | 100 | 95 | – | –
1-Methyl-1H-imidazole-4-sulfonic acid (4-chloro-benzyl)-(3-morpholin-4-yl-phenyl)-amide [Example 36] | 83 | 44 | – | –
Cn1ccc(S(=O)(=O)N(Cc2ccc(Cl)cc2)c2cccc(OCC(=O)NC3CCC3)c2)n1 [Example 50, 2-{3-[(4-Chloro-benzyl)-(1-methyl-1H-pyrazole-3-sulfonyl)-amino]-phenoxy}-N-cyclobutyl-acetamide] | – | – | 94 | 79
1-Methyl-1H-pyrazole-3-sulfonic acid (4-chloro-benzyl)-[3-(2-oxo-pyrrolidin-1-yl)-phenyl]-amide [Example 38] | 96 | 71 | – | –
COCC(=O)Nc1cccc(N(Cc2ccccc2)S(=O)(=O)c2ccccc2)c1 [Example 12, N-[3-(Benzenesulfonyl-benzyl-amino)-phenyl]-2-methoxy-acetamide] | – | – | 85 | 58
Cn1cncc1C(=O)Nc1cccc(N(Cc2ccccc2)S(=O)(=O)c2ccccc2)c1 [Example 3, 3-Methyl-3H-imidazole-4-carboxylic acid [3-(benzenesulfonyl-benzyl-amino)-phenyl]-amide] | – | – | 90 | 73
O=S(=O)(c1ccccc1)N(Cc1ccccc1)c1cccc(N2CCOCC2)c1 [Example 2, N-Benzyl-N-(3-morpholin-4-yl-phenyl)-benzenesulfonamide] | – | – | 76 | 62
O=C(Cc1ccccc1)Nc1cccc(N(Cc2ccccc2)S(=O)(=O)c2ccccc2)c1 [Example 11, N-[3-(Benzenesulfonyl-benzyl-amino)-phenyl]-2-phenyl-acetamide] | – | – | 86 | 77
1-Methyl-1H-pyrazole-3-sulfonic acid (4-chloro-benzyl)-(3-morpholin-4-yl-phenyl)-amide [Example 40] | 99 | 95 | – | –
Pyridine-3-sulfonic acid benzyl-[3-(2-oxo-imidazolidin-1-yl)-phenyl]-a(2-oxo-imidazolidin-1-yl)-phenyl]-amide [Example 47] | 74 | 51 | – | –
N-Benzyl-3-cyano-4-fluoro-N-[3-(2-oxo-imidazolidin-1-yl)-phenyl]-benzenesulfonamide [Example 44] | 90 | 72 | – | –
Cn1cnc(S(=O)(=O)N(Cc2ccc(Cl)cc2)c2ccc(F)c(N3CCCC3=O)c2)c1 [Example 4, 1-Methyl-1H-imidazole-4-sulfonic acid (4-chloro-benzyl)-[4-fluoro-3-(2-oxo-pyrrolidin-1-yl)-phenyl]-amide] | – | – | 61 | –
O=C1NCCN1c1cccc(N(Cc2ccc(Cl)cc2)S(=O)(=O)c2ccccc2)c1 [Example 46, N-(4-Chloro-benzyl)-N-[3-(2-oxo-imidazolidin-1-yl)-phenyl]-benzenesulfonamide] | – | – | 100 | 91
